Reference: US11591298B2, “Bisaminoquinoline compounds, pharmaceutical compositions prepared therefrom and their use” (THE TRUSTEES OF THE UNIVERSITY OF PENNSYLVANIA, priority 2011, dated 2023)
Read-outs that look alike come from different tables or passages of the source.

Key:
[1] = test system: LN229 (glioma), 1205Lu (melanoma), HT-29 (colon) and c8161 (melanoma) cells; test: MTT assay (72 hours) in 4 cell lines; format: cell-based; conditions: range over the 4 cell lines tested
Experimental: FIGS. 4A, 4B, 4C, 4D. […] White arrows: small puncta; red arrows: dense puncta. Graphs show mean+/−SEM puncta/cell. (4B) Representative electron micrographs of LN229-GFP-LC3 cells treated (4 hours) with DMSO, HCQ 10 μM, or Lys01 10 μM Arrows: Autophagic vesicles. (4C) LC3 immunoblotting of LN229 cells treated for 24 hours an indicated; calculated ratio of LC3II/LC3I ratios for bafilomycin versus control co-treatment. […] (4D) MTT assay (72 hours) for 4 cell lines. Red: Lys01, Blue: Lys02, Purple: Lys03 Green: Lys04 Orange: HCQ. Values presented are means+/−SEM with 5 replicates per treatment.
The MTT assay was used to assess viable cells at 72 hours.

c8161 xenografts = test system: c8161 xenografts
Experimental: (§1) FIGS. 6A, 6B, 6C, 6D, 6E, 6F, 6G. […] (6A) Representative electron micrographs (12,000×) of c8161 xenograft tumors harvested after 2 days of daily i.p. treatment with PBS, HCQ 60 mg/kg, or Lys05 76 mg/kg. Arrows: autophagic vesicles; scale bar 2 μm (6B) Quantification of mean+SEM number of autophagic vesicles/cell from two representative tumors from each treatment group. (C-D) 1205Lu xenografts were treated with PBS (blue), HCQ 60 mg/kg ip (green), or Lys05 76 mg/kg (red) i.p. every 3/5 days. (6C) Tumor volumes over 14 days (6D) Daily tumor growth rate. (E-G) HT29 xenografts were generated in the flanks of nude mice and treated with PBS, Lys05 10 mg/kg/ip daily, Lys05 40 mg/kg ip daily, or Lys05 80 mg/kg ip every 3/5 days. (6E) Average daily tumor growth rate. (6F) Tumor volumes over 14 days.
(§2) FIGS. 7A, 7B, 7C. […] (7A) Immunoblotting against LC3 in lysates from individual c8161 tumors treated as indicated with daily i.p. injections for 48 hours. […] Arrows: Autophagic vesicle (white); apoptotic cell (orange) (7C) Immunoblotting against LC3 in HT29 xenografts treated with daily dosing (10, 40 mg/kg) or 3/5 days (80 mg/kg) for 14 days.
(§3) Lys05, the trihydrochloride salt of Lys01 was synthesized to enhance aqueous solubility and to enable in vivo studies. […] To investigate the safety of Lys05 and its in vivo effects on autophagy, c8161 xenografts matched for tumor size were treated with intraperitoneal (i.p.) daily PBS, or equimolar doses of HCQ or Lys05 (HCQ 60 mg/kg (138 nmoles/g), Lys05 76 mg/kg (138 nmoles/g)) for 48 hours. […] After 48 hours of treatment mice were euthanized, and tumors were processed for electron microscopy (EM).

mice [2] = conditions: mouse, in vivo, ip, 76 mg/kg
Experimental: For chronic treatment experiments the 1205Lu melanoma model was chosen over the c8161 xenograft model because c8161 xenografts tend to spontaneously ulcerate confounding tumor measurements and safety analysis. Ten mice bearing 1205Lu xenografts were matched for tumor volume per cohort were assigned to either PBS, HCQ 60 mg/kg i.p. or Lys05 76 mg/kg i.p. (equimolar dosing) dosed for 3 days of daily treatment with 2 days off treatment (3/5 days) for all 3 treatment groups, to allow for symptom recovery and to avoid excess toxicity.
Paneth cell dysfunction, including reduced size and number of eosinophilic lysozyme-containing granules, has previously been described as the pathognomonic sign of autophagy deficiency in mice and a subset of Crohn's disease patients that have a genetic deficiency in the essential autophagy gene ATG16L1 (31).

cathepsin D [3] = conditions: 1205Lu cells; within 24 hours; compared to HCQ- or PBS-treated cells
1205Lu xenografts = test: 1205Lu xenograft antitumor activity (14 days); format: in vivo, nude mice; conditions: for increase in AV/cell compared to control treated tumors: end of 14 days of treatment, HCQ 60 mg/kg
LN229 GFP-LC3 cells [4] = test: Bafilomycin clamp experiment (LC3 immunoblotting); format: cell-based, human; conditions: 24 hours; HCQ 10 μM, Lys01 10 μM, rapamycin
Experimental: FIGS. 4A, 4B, 4C, 4D. Autophagy inhibition and cytotoxicity of Lys01 compared to HCQ (4A) Representative images of LN229 GFP-LC3 cells treated as indicated for 4 hours. White arrows: small puncta; red arrows: dense puncta. Graphs show mean+/−SEM puncta/cell. (4B) Representative electron micrographs of LN229-GFP-LC3 cells treated (4 hours) with DMSO, HCQ 10 μM, or Lys01 10 μM Arrows: Autophagic vesicles. (4C) LC3 immunoblotting of LN229 cells treated for 24 hours an indicated; calculated ratio of LC3II/LC3I ratios for bafilomycin versus control co-treatment. Above the dashed line indicates an autophagy inducer or control, below the dashed line indicated an autophagy inhibitor. (4D) MTT assay (72 hours) for 4 cell lines. Red: Lys01, Blue: Lys02, Purple: Lys03 Green: Lys04 Orange: HCQ. Values presented are means+/−SEM with 5 replicates per treatment.
To further characterize the effects of Lys01 on autophagy, LN229 GFP-LC3 cells were treated with Lys01 or HCQ (FIG. 4A). […] Electron micrographs of LN229 GFP-LC3 cells treated with DMSO, HCQ, or Lys01 further characterized the significant morphological difference in the size and number of vesicles produced by blockade of autophagy with these agents (FIG. 4B). Thus, Lys01 produces morphological changes more pronounced than HCQ, a known lysosomal inhibitor, at 10-fold lower concentrations. […]

c8161 cells [5] = test: Immunoblotting against LC3 and p62 in c8161 cells; format: cell-based; conditions: Lys01 versus Lys05
Experimental: (§4) FIGS. 5A, 5B. […] (5A) Immunoblotting against LC3 and p62 in c8161 cells treated as indicated (5B) MTT assay in c8161 cells at 72 hours. HCQ: Hydroxychloroquine.
as §3

acid phosphatase [6] = conditions: 1205Lu cells; 10 μM; within 24 hours
acid phosphatase [7] = conditions: 1205Lu xenograft tumors; after 14 days of treatment
[8] = test system: HT-29 colon cancer xenografts
Experimental: as §1, §2

[9] = Acridine orange staining of acidic vesicles; format: cell-based; conditions: 24 hours
mice [10] = test system: mice
cathepsin D [11] = conditions: 1205Lu xenograft tumors; 14 days
mice [12] = conditions: for mortality: daily i.p. for 48 hours, HCQ 60 mg/kg, Lys05 76 mg/kg
Experimental: as §3

c8161 cells [13] = test: MTT assay in c8161 cells at 72 hours; format: cell-based; conditions: Lys01 versus Lys05
Experimental: as §4, §3

[14] = format: cell-based; conditions: within 30 minutes
LN229 GFP-LC3 cells [15] = test: GFP-LC3 puncta imaging in LN229 GFP-LC3 cells; format: cell-based, human; conditions: within 4 hours
[16] = human, 24 h, 10 μM
Experimental: FIGS. 11A, 11B, 11C, 11D. […] (11B) Concentrations of HCQ or Lys05 in cells and tumor whole cell and lysosomal homogenates. […] Lysotracker puncta (red) per cell was scored for three high powered fields. Blue: nuclear DAPI staining. Data presented is mean+SEM (11D) Fluorescence imaging of c8161 cells treated as indicated for 24 hours and stained with acridine orange (AO): orange: Aggregated AO, green: diffuse AO
FIG. 12. High performance liquid chromatography tandem mass spectrometry assay for HCQ and Lys05. 1205Lu cells (24 hours) and 1205Lu tumors (14 days). WC: Whole cell homogenate L: Lysosomal subfraction HCQ: Hydroxychloroquine

[17] = test system: LC3II/LC3I ratio in LN229 cells; test: LC3 immunoblotting (LC3II/LC3I ratio) in LN229 cells; format: cell-based, human; conditions: 4 hours
Experimental: FIG. 3. Effects of Lys01-Lys04 on LC3 immunoblotting Immunoblotting and quantification of LC3II/LC3I ratio in lysates from LN229 cells treated for 4 hours. The graphs show (mean+/−SD) LC3II/LC3I ratios of each treatment normalized to the LC3II/LC3I ratio of control treated cells for each experiment.
LN229 (human glioblastoma) were treated with Lys01 and derivatives Lys02, Lys03, Lys04, HCQ and CQ. […] LC3 is a ubiquitin-like protein which exists as an unconjugated form (LC3I) or conjugated to AV membranes (LC3II) (25). The ratio of LC3II/LC3I reflects the accumulation of AV in cells, and therefore effective autophagy inhibition.

CN(CCN)CCNc1ccnc2cc(Cl)ccc12 [Lys02]
IC50 [1]: 35 to 91 µM

CN(CCNc1ccnc2cc(Cl)ccc12)CCNc1ccnc2cc(Cl)ccc12.Cl.Cl.Cl [Lys05]
LC3II/LC3I levels in tumors compared to control- or HCQ-treated tumors (c8161 xenografts; 76 mg/kg i.p. daily, 48 hours): Significantly higher
increase in the mean number of AV/cell compared to control- or HCQ-treated tumors (c8161 xenografts; Lys05 76 mg/kg i.p. daily, 48 hours, electron microscopy): > 2 fold
cleaved caspase 3 levels compared to HCQ- or PBS-treated tumors (c8161 xenografts; after 48 hours of treatment): elevated
clinical signs (mice [2]): lethargic with arched backs
histology of the ileum: Paneth cells (mice [2]): dysmorphic Paneth cells
acid-dependent processing of immature cathepsin D to the mature activated form within the lysosome (cathepsin D [3]): decreased acid-dependent processing
tumor growth (growth curves) compared to controls (1205Lu xenografts; Lys05 76 mg/kg i.p. 3/5 days, 14 days): significantly impaired
reduction in the average daily tumor growth rate compared to vehicle treated controls (1205Lu xenografts; Lys05 76 mg/kg i.p. 3/5 days, p=0.002): 53%
average daily tumor growth rate (1205Lu xenografts; Lys05 76 mg/kg i.p. 3/5 days, vehicle 31.2): 14.6 mm^3/day
tumor necrosis (1205Lu xenografts; center of tumors, after 14 days): Extensive tumor necrosis
increase in AV/cell compared to control treated tumors (1205Lu xenografts; Lys05 76 mg/kg i.p. 3/5 days): 6 fold
LC3II/LC3I ratio in bafilomycin treated cells compared to control cells (LN229 GFP-LC3 cells [4]): did not demonstrate an increase
LC3II/LC3I ratio (c8161 cells [5]): equivalent dose-dependent increases
autophagy cargo protein p62 (c8161 cells [5]): accumulation
reduction in acid phosphatase activity in the lysosomal fraction versus PBS treated cells (acid phosphatase [6]): 43%
increase in extralysosomal acid phosphatase activity (acid phosphatase [7]): 1.75 fold
excised tumor weights ([8]; 10 mg/kg daily dosing, end of the experiment): significant antitumor activity
average daily tumor growth rate ([8]; 10, 40 mg/kg i.p. daily, 80 mg/kg i.p. 3/5 days): significantly impaired in a dose-dependent fashion
LC3II/LC3I ratio in tumor lysates compared to control ([8]; after 14 days, all Lys05 doses including 10 mg/kg): significant increase
tumor growth curves compared to control ([8]; all 3 doses of Lys05): significant tumor growth impairment
acidic vesicles (acridine orange) ([9]; 10 μM): accumulation of acidic vesicles
acidic vesicles (acridine orange) ([9]; 50 μM): no acidic vesicles were observed
mice euthanized early for bowel obstruction (mice [10]; 80 mg/kg i.p. 3/5 days): 2/8
bowel thickening and obstruction (mice [10]; mouse, in vivo): limited to 80 mg/kg dose cohort
increased acid-dependent processing of cathepsin D within the whole cell homogenate (cathepsin D [11]): not observed
mortality (mice [12]): no mice died
clinical signs (mice [12]; mouse, in vivo, ip, 76 mg/kg): arched backs and lethargy
IC50 values in the MTT assay (c8161 cells [13]): identical
Lysotracker-positive puncta ([14]; 10 μM): fewer Lysotracker-positive puncta
Lysotracker-positive puncta ([14]; 100 μM): fewer Lysotracker-positive puncta

CCN(CCO)CCCC(C)Nc1ccnc2cc(Cl)ccc12 (stereo not shown) [HCQ, hydroxychloroquine, reference compound]
increase in AV/cell compared to control treated tumors (1205Lu xenografts; Lys05 76 mg/kg i.p. 3/5 days): 3 fold
GFP-LC3 punctate fluorescence (LN229 GFP-LC3 cells [15]; 1 μM): observed in a minority of cells
GFP-LC3 punctate fluorescence (LN229 GFP-LC3 cells [15]; 10 μM): numerous small puncta
GFP-LC3 punctate fluorescence (LN229 GFP-LC3 cells [15]; 100 μM): larger dense puncta
IC50 [1]: 15 to 42 µM
LC3II/LC3I ratio in bafilomycin treated cells compared to control cells (LN229 GFP-LC3 cells [4]): did not demonstrate an increase
concentration in the lysosomal fraction [16]: 13 µM
concentration in the whole cell homogenate [16]: 8 µM
acidic vesicles (acridine orange) ([9]; dose range): dose-dependent accumulation of acidic vesicles
mortality (mice [12]): no mice died
Lysotracker-positive puncta ([14]; 10 μM): not observed
Lysotracker-positive puncta ([14]; 100 μM): significant decrease

Clc1ccc2c(NCCOCCOCCNc3ccnc4cc(Cl)ccc34)ccnc2c1 [Lys04]
dose-response relationship / potency in LC3 autophagy assay [17]: intermediate potency
IC50 [1]: 10 to 17 µM

COc1ccc2c(NCCN(C)CCNc3ccnc4cc(OC)ccc34)ccnc2c1 [Lys03]
IC50 [1]: 24 to 53 µM
